Usually IC50 stands for the concentration that gives 50% inhibition. Lower therefore signals higher potency.

These results are taken from US7968716B2, “Caspase inhibitors and uses thereof” (Vertex Pharmaceuticals Incorporated, priority 2000, dated 2011).

Assay [1] concerns the target T1, recombinant, purified human Caspase-3 (Homo sapiens, UniProt P42574).
T1 sequence (P42574 29-175 limits assumed): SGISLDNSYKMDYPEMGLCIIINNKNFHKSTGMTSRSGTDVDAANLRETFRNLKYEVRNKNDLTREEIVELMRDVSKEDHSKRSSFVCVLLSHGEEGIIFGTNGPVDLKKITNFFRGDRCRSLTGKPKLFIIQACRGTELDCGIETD
T1 sequence (P42574 176-277 limits assumed): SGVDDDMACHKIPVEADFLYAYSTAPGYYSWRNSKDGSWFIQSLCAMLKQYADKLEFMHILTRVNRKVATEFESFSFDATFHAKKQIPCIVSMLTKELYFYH
The experiment in a line: Caspase-3 enzyme assay, fluorogenic substrate cleavage. It is filed as biochemical. To be noted: second order rate constant of enzyme inactivation; substrate Acetyl-Asp-Glu-Val-Asp-amino-4-methylcoumarin. From the text: (§1) The assays for caspase inhibition are based on the cleavage of a fluorogenic substrate by recombinant, purified human Caspases -1, -3, -7 or -8. The assays are run in essentially the same way as those reported by Garcia-Calvo et al. (J. Biol. Chem. 273 (1998), 32608-32613), using a substrate specific for each enzyme. The substrate for Caspase-1 is Acetyl-Tyr-Val-Ala-Asp-amino-4-methylcoumarin. The substrate for Caspases -3, -7 and -8 is Acetyl-Asp-Glu-Val-Asp-amino-4-methylcoumarin.
(§2) The observed rate of enzyme inactivation at a particular inhibitor concentration, kobs, is computed by direct fits of the data to the equation derived by Thornberry et al. (Biochemistry 33 (1994), 3943-3939) using a nonlinear least-squares analysis computer program (PRISM 2.0; GraphPad software). To obtain the second order rate constant, kinact, kobs values are plotted against their respective inhibitor concentrations and kinact values are subsequently calculated by computerized linear regression.

Assay [2] concerns the target T2, recombinant, purified human Caspase-1 (Homo sapiens, UniProt P29466).
T2 sequence (P29466 120-297 limits assumed): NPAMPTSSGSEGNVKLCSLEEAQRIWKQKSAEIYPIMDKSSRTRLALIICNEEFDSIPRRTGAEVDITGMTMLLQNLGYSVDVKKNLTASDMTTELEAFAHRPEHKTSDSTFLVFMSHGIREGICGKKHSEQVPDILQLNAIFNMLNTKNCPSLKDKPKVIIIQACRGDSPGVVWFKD
T2 sequence (P29466 317-404 limits assumed): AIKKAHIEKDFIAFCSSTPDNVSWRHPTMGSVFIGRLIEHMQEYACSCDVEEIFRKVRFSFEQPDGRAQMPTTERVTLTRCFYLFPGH
Kind of assay: Caspase-1 enzyme assay, fluorogenic substrate cleavage. It is filed as biochemical. The conditions noted are these: second order rate constant of enzyme inactivation; substrate Acetyl-Tyr-Val-Ala-Asp-amino-4-methylcoumarin.
Text: as §1, §2

Assay [3] addresses T3, recombinant, purified human Caspase-7 (Homo sapiens, UniProt P55210).
T3 sequence (P55210 24-198 limits assumed): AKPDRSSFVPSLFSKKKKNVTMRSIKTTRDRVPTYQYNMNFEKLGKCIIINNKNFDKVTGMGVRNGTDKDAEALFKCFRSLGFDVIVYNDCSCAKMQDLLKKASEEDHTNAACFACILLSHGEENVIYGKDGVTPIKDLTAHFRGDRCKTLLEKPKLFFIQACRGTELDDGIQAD
T3 sequence (P55210 207-303 limits assumed): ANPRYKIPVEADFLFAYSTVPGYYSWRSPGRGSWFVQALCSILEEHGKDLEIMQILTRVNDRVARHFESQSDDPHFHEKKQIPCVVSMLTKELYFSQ
The experiment in a line: Caspase-7 enzyme assay, fluorogenic substrate cleavage. It is filed as biochemical. To be noted: second order rate constant of enzyme inactivation; substrate Acetyl-Asp-Glu-Val-Asp-amino-4-methylcoumarin.
Text: as §1, §2

For assay [4], the system named is IL-1β secretion from peripheral blood mononuclear cells (PBMC). The experiment in a line: Inhibition of IL-1β secretion from PBMC. It is filed as cell-based. To be noted: human PBMC, LPS 50 ng/ml, 16-18 h, mature IL-1β in supernatant. Here is the method: Processing of pre-IL-1β by caspase-1 can be measured in cell culture using a variety of cell sources. Human PBMC obtained from healthy donors provides a mixed population of lymphocyte and mononuclear cells that produce a spectrum of interleukins and cytokines in response to many classes of physiological stimulators.
The test compound is dissolved in Dimethyl Sulphoxide (DMSO, Sigma #D-2650) to give a 100 mM stock solution. This is diluted in complete medium consisting of RPMI containing 10% heat inactivated FCS (Gibco BRL #10099-141), 2 mM L-Glutamine (Sigma, #G-7513), 100 U penicillin and 100 μg/ml streptomycin (Sigma #P-7539). The final concentration range of test compound is from 100 μM down to 6 nM over eight dilution steps. The highest concentration of test compound is equivalent to 0.1% DMSO in the assay.
Human PBMC are isolated from Buffy Coats obtained from the blood bank using centrifugation on Ficoll-Paque leukocyte separation medium (Amersham, #17-1440-02) and the cellular assay is performed in a sterile 96 well flat-bottomed plate (Nunc). Each well contains 100 μl of the cell suspension, 1×10^5 cells, 50 μl of compound dilutions and 50 μl of LPS (Sigma #L-3012) at 50 ng/ml final concentration. Controls consist of cells +/− LPS stimulation and a serial dilution of DMSO diluted in the same way as compound. […]

In assay [5] the target is recombinant, purified human Caspase-8 (Homo sapiens, UniProt Q14790). The experiment in a line: Caspase-8 enzyme assay, fluorogenic substrate cleavage. It is filed as biochemical. The conditions noted are these: second order rate constant of enzyme inactivation; substrate Acetyl-Asp-Glu-Val-Asp-amino-4-methylcoumarin.
Text: as §1, §2

The test system of a further assay is Jurkat E6.1 cells. Kind of assay: Anti-Fas induced apoptosis assay. To be noted: Homo sapiens, anti-Fas antibody CH-11 10 ng/ml, 16-18 hrs, DNA fragmentation. In kind it is cell-based. From the text:
Cellular apoptosis may be induced by the binding of Fas ligand (FasL) to its receptor, CD95 (Fas). CD95 is one of a family of related receptors, known as death receptors, which can trigger apoptosis in cells via activation of the caspase enzyme cascade. The process is initiated by the binding of the adapter molecule FADD/MORT-1 to the cytoplasmic domain of the CD-95 receptor-ligand complex. Caspase-8 then binds FADD and becomes activated, initiating a cascade of events that involve the activation of downstream caspases and subsequent cellular apoptosis. […]
Jurkat E6.1 cells are cultured in complete medium consisting of RPMI-1640 (Sigma No)+10% foetal calf serum (Gibco BRL No. 10099-141)+2 mM L-glutamine (Sigma No. G-7513). […] The cells are counted and the density adjusted to 2×10^6 cells/ml with complete medium. […]
Apoptosis of the cells is measured by the quantitation of DNA fragmentation using a ‘Cell Death Detection Assay’ from Boehringer-Mannheim, No. 1544 675. […] OD405 nm is measured 20 minutes after addition of the final substrate in a SPECTRAmax Plus plate reader (Molecular Devices). OD405 nm is plotted versus compound concentration and the IC50 values for the compounds are calculated using the curve-fitting program SOFTmax Pro (Molecular Devices) using the four parameter fit option.

recombinant, purified human Caspase-8, sequence (Q14790 217-374 limits assumed): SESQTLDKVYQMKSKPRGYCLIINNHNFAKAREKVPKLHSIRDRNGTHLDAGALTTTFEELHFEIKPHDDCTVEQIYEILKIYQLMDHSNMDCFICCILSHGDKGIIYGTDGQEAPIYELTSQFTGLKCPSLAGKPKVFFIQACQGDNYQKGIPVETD
recombinant, purified human Caspase-8, sequence (Q14790 385-479 limits assumed): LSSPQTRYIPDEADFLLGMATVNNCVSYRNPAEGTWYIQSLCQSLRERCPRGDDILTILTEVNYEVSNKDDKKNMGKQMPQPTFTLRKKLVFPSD

Consider `O=C(O)CC(NC(=O)[C@@H]1CCc2nc3ccccc3c(=O)n21)C(=O)CF` (stereo partly drawn) [Example 1, [3S/R(1S)]-3-(2,3-Dihydro-1H-9-oxo-pyrrolo[2,1-b]quinazolin-1-carboxamido)-5-fluoro-4-oxo-pentanoic acid], for which the “Kinact, Caspase-3 Activity” value in assay [1] worked out at 160500 M⁻¹ s⁻¹.

`O=C(O)CC(NC(=O)[C@@H]1CCCc2nc3ccccc3c(=O)n21)C(=O)CF` (stereo partly drawn) [Example 2, [3S/R(9S)]-5-Fluoro-4-oxo-3-(11-oxo-6,7,8,9-tetrahydro-11H-pyrido[2,1-b]quinazolin-9-carboxamido)-pentanoic acid]: the “Kinact, Caspase-1 Activity” value in assay [2] came to 455000 M⁻¹ s⁻¹. Consider `O=C(O)CC(NC(=O)[C@@H]1CCc2cc3ccccc3c(=O)n21)C(=O)CF` (stereo partly drawn) [Example 3, [3S/R(3S)]-3-(2,3-Dihydro-1H-5-oxo-pyrrolo[1,2-b]isoquinolin-3-carboxamido)-5-fluoro-4-oxo-pentanoic acid], for which the “Kinact, Caspase-7 Activity” value in assay [3] worked out at 229000 M⁻¹ s⁻¹. Consider `O=C(O)CC(NC(=O)[C@@H]1CCCc2cc3ccccc3c(=O)n21)C(=O)CF` (stereo partly drawn) [Example 4, [3S/R(4S)]-5-Fluoro-4-oxo-3-(6-oxo-1,2,3,4-tetrahydro-6H-benzo[b]quinolizin-4-carboxamido)-pentanoic acid], for which the midpoint of inhibition in assay [4], the IC50, lay at 569 nM.

`O=C(O)CC(NC(=O)[C@@H]1CCCn2c(=O)c3ccccc3c(=O)n21)C(=O)CF` (stereo partly drawn) [Example 5, [3S/R(1S)]-3-(6,11-Dioxo-1,2,3,4-tetrahydro-pyridazino[1,2-b]phthalazin-1-carboxamido)-5-fluoro-4-oxo-pentanoic acid]: the “Caspase-8 Kinact” value in assay [5] amounted to 82000 M⁻¹ s⁻¹.

`O=C(O)CC(NC(=O)[C@@H]1CCCn2c(=O)c3nccnc3c(=O)n21)C(=O)CF` (stereo partly drawn) [Example 6, [3S/R(5S)]-(9,10-Dioxo-5,6,7,8,9,10-hexahydro-1,4,8a,10a-tetraazaanthracene-5-carboxamido)-5-fluoro-4-oxo-3-pentanoic acid] showed a half-maximal inhibitory concentration (IC50) in the assay with Jurkat E6.1 cells of 168 nM.
